System: Candida albicans IFO 0583
Assay: Paper disc agar diffusion, growth inhibition zone, Candida albicans IFO 0583
Assay type: cell-based
Settings: Table 5, Medium A, 28° C., two-day culture, 1000 μ/ml, 8 mm disc; for zone of inhibition at 1000 µg/mL: Candida albicans, IFO0583, 48 h, read-out: Diameter of growth-inhibition zone
Experimental: Evaluation of the antifungal activities of the compound of formula (I) was conducted by the following method: a sheet of filter paper disc (manufactured by Toyo Seisakusho, 8 mm in diameter) soaked in a […] solution of a compound of formula (I) in methanol was placed on an agar plate containing various fungi, which was incubated at 28° C. for two days, and the diameter of the growth inhibition zone around the filter paper disc was measured. The following culture media were used: A: yeast nitrogen base agar medium (pH 7.0) B: Sabouraud agar medium
cpd. No. (Medium A, 28° C., two-day culture)

CC(=C(Cn1cncn1)c1ccc(F)cc1F)S(=O)(=O)N1CCN(c2ccccc2)CC1 (single isomer, unassigned) [Compound 30, 1-[3-(2,4-difluorophenyl)-4-(1H-1,2,4-triazol-1-yl)-2-buten-2-ylsulfonyl]-4-phenylpiperazine]
Diameter of growth-inhibition zone: 12 mm

CC(=C(Cn1cncn1)c1ccc(F)cc1F)S(=O)(=O)N1CCN(c2ccccc2)CC1 (single isomer, unassigned) [Compound 31, 1-[3-(2,4-difluorophenyl)-4-(1H-1,2,4-triazol-1-yl)-2-buten-2-ylsulfonyl]-4-phenylpiperazine]
Diameter of growth-inhibition zone: 35 mm

CCCCNS(=O)(=O)C(C)=C(Cn1cncn1)c1ccc(F)cc1F (single isomer, unassigned) [Compound 32, N-butyl-3-(2,4-difluorophenyl)-4-(1H-1,2,4-triazol-1-yl) -2-butene-2-sulfonamide]
zone of inhibition at 1000 µg/mL: 12 mm

CC(=C(Cn1cncn1)c1ccc(F)cc1F)S(=O)(=O)N(C)C (single isomer, unassigned) [Compound 34, N,N-dimethyl-3-(2,4-difluorophenyl)-4-(1H-1,2,4-triazol-1-yl)-2-butene-2-sufonamide]
zone of inhibition at 1000 µg/mL: 15 mm

C[C@@H](SNC1CCCCC1)[C@](O)(Cn1cncn1)c1ccc(F)cc1F [Compound 5]
zone of inhibition at 1000 µg/mL: 35 mm

C[C@@H](SN1CCOCC1)[C@](O)(Cn1cncn1)c1ccc(F)cc1F [Compound 7, N-[(2R,3R)-3-(2,4-difluorophenyl)-3-hydroxy-4-(1H-1,2,4-triazol-1-yl) -2-butylsulfenyl]morpholine]
zone of inhibition at 1000 µg/mL: 33 mm

C[C@@H](SN1CCN(C(=O)OC(C)(C)C)CC1)[C@](O)(Cn1cncn1)c1ccc(F)cc1F [Compound 17, N-tert-butoxycarbonyl-4-[(2R,3R)-3-(2,4-difluorophenyl)-3-hydroxy-4-(1H-1,2,4-triazol-1-yl)-2-butylsulfenyl]piperazine]
zone of inhibition at 1000 µg/mL: 40 mm

C[C@@H]([S+]([O-])N1CCN(C(=O)OC(C)(C)C)CC1)[C@](O)(Cn1cncn1)c1ccc(F)cc1F (some centres unmarked) [Compound 18]
zone of inhibition at 1000 µg/mL: 37 mm

C[C@H]([C@](O)(Cn1cncn1)c1ccc(F)cc1F)S(=O)(=O)N1CCN(C(=O)OC(C)(C)C)CC1 [Compound 19, 1-tert-butoxycarbonyl-4-[(2R,3R)-3-(2,4-difluorophenyl)-3-hydroxy-4-(1H-i,2,4-triazol-1-yl) -2-butylsulfonyl]piperazine]
zone of inhibition at 1000 µg/mL: 40 mm

C[C@H]([C@](O)(Cn1cncn1)c1ccc(F)cc1F)S(=O)(=O)N1CCNCC1 [Compound 20, 1-[(2R,3R)-3-(2,4-difluorophenyl)-3hydroxy-4-(1H-2,4-triazol-1-yl)-2-butylsulfonyl]piperazine]
zone of inhibition at 1000 µg/mL: 22 mm

C[C@H]([C@](O)(Cn1cncn1)c1ccc(F)cc1F)S(=O)(=O)Nc1ccc(Br)cc1 [Compound 22, N-(4-bromophenyl)-[(2R, 3R)-3-(2,4-difluorophenyl)-3-hydroxy-4-(1H-1,2,4-triazol-1-yl)-2-butane]sulfonamide]
zone of inhibition at 1000 µg/mL: 30 mm

C[C@H]([C@](O)(Cn1cncn1)c1ccc(F)cc1F)S(=O)(=O)N1CCN(C(=O)c2ccc(C(F)(F)F)cc2)CC1 [Compound 24, 1-[(2R,3R)-3-(2,4-difluorophenyl)-3-hydroxy-4-(1H-1,2,4-triazol-1-yl)-2-butylsulfonyl]-4-(4-trifluoromethylbenzoyl)piperazine]
zone of inhibition at 1000 µg/mL: 37 mm

CC(=O)N1CCN(S(=O)(=O)[C@H](C)[C@](O)(Cn2cncn2)c2ccc(F)cc2F)CC1 [Compound 25, 1-acetyl-4-[(2R,3R)-3-(2,4-difluorophenyl)-3-hydroxy-4-(1H-1,2,4-triazol-1-yl)-2-butylsulfonyl]piperazine]
zone of inhibition at 1000 µg/mL: 30 mm

C[C@H]([C@](O)(Cn1cncn1)c1ccc(F)cc1F)S(=O)(=O)N1CCN(Cc2nncn2C)CC1 [Compound 26, 1-[(2R,3R)-3-(2,4-difluorophenyl)-3-hydroxy-4-(1H-1,2,4-triazol-1-yl)-2-butylsulfonyl]-4-(4-methyl-4H-1,2,4-triazol-3-ylmethyl) piperazine]
zone of inhibition at 1000 µg/mL: 20 mm

C[C@H]([C@](O)(Cn1cncn1)c1ccc(F)cc1F)S(=O)(=O)N1CCCC1 [Compound 28, 1-[(2R,3R)-3-(2,4-difluorophenyl)-3-hydroxy-4-(1H-1,2,4-triazol-1-yl)-2-butylsulfonyl]pyrrolidine]
zone of inhibition at 1000 µg/mL: 50 mm

C[C@H]([C@](O)(Cn1cncn1)c1ccc(F)cc1F)S(=O)(=O)NCc1nncn1C [Compound 41, N-(4-methyl-4H-1,2,4-triazol-3-ylmethyl)-[(2R,3R)-3-(2,4-difluorophenyl)-3-hydroxy-4-(1H-1,2,4-triazol-1-yl)-2-butane]sulfonamide]
zone of inhibition at 1000 µg/mL: 23 mm

CCC(C)n1ncn(-c2ccc(N3CCN(S(=O)(=O)[C@H](C)[C@](O)(Cn4cncn4)c4ccc(F)cc4F)CC3)cc2)c1=O (stereo partly drawn) [Compound 42, 1-[4-[2-(2-butyl)-2,3-dihydro-3-oxo-4H-1,2,4-triazol-4-yl]phenyl]-4-[(2R,3R)-3-(2,4-difluorophenyl)-3-hydroxy-4-(1H-1,2,4-triazol-1-yl)-2-butanesulfonyl]piperazine]
zone of inhibition at 1000 µg/mL: 40 mm

CCC(C)n1ncn(-c2ccc(N3C=CN(S(=O)(=O)[C@H](C)[C@](O)(Cn4cncn4)c4ccc(F)cc4F)CC3)cc2)c1=O (stereo partly drawn) [Compound 43, 1-[4-[2-(2-butyl)-2,3-dihydro-3-oxo-4H-1,2,4-triazol-4-yl]phenyl]-4-[(2R,3R)-3-(2,4-difluorophenyl)-3-hydroxy-4-(1H-1,2,4-triazol-1-yl)-2-butanesulfonyl]-1,2,3,4-tetrahydropyrazine]
zone of inhibition at 1000 µg/mL: 35 mm

C[C@H]([C@](O)(Cn1cncn1)c1ccc(F)cc1F)S(=O)(=O)N1CCN(c2ccc(-n3cnn(CC(F)(F)F)c3=O)cc2)CC1 [Compound 44, 1-[4-[2-(2,2,2-trifluoroethyl)-2,3-dihydro-3-oxo-4H-1,2,4-triazol-4-yl]phenyl]-4-[(2R,3R)-3-(2,4-difluorophenyl)-3-hydroxy-4-(1H-1,2,4-triazol-1-yl)-2-butanesulfonyl]piperazine]
zone of inhibition at 1000 µg/mL: 33 mm

C[C@H]([C@](O)(Cn1cncn1)c1ccc(F)cc1F)S(=O)(=O)N1CCN(c2ncccn2)CC1 [Compound 45, 1-[(2R,3R)-3-(2,4-difluorophenyl)-3-hydroxy-4-(1H-1,2,4-triazol-1-yl)-2-butanesulfonyl]-4-(2-pyrimidinyl) piperazine]
zone of inhibition at 1000 µg/mL: 50 mm

C[C@H]([C@](O)(Cn1cncn1)c1ccc(F)cc1F)S(=O)(=O)N(C)Cc1ccccc1 [Compound 47, N-benzyl-N-methyl-[(2R,3R)-3-(2,4-difluorophenyl)-3-hydroxy-4-(1H-1,2,4-triazol-1-yl)-2-butane]sulfonamide]
zone of inhibition at 1000 µg/mL: 45 mm

C[C@@H](NS(=O)(=O)c1ccc(F)cc1F)[C@](O)(Cn1cncn1)c1ccc(F)cc1F [Compound 50]
zone of inhibition at 1000 µg/mL: 45 mm

C[C@@H](NS(=O)(=O)c1ccc(N)cc1)[C@](O)(Cn1cncn1)c1ccc(F)cc1F [Compound 52]
zone of inhibition at 1000 µg/mL: 35 mm

C[C@@H](NS(=O)(=O)CCCCl)[C@](O)(Cn1cncn1)c1ccc(F)cc1F [Compound 56]
zone of inhibition at 1000 µg/mL: 30 mm

C[C@@H](N1CCCS1(=O)=O)[C@](O)(Cn1cncn1)c1ccc(F)cc1F [Compound 57]
zone of inhibition at 1000 µg/mL: 35 mm

COc1ccc(CNS(=O)(=O)[C@H](C)[C@](O)(Cn2cncn2)c2ccc(F)cc2F)cc1OC [Compound 60, N-(3,4-dimethoxybenzyl)-[(2R,3R)-3-(2,4-difluorophenyl)-3-hydroxy-4-(1H-1,2,4-triazol-1-yl)-2-butane]sulfonamide]
zone of inhibition at 1000 µg/mL: 35 mm

CCCCCCCCCCCCN(C)S(=O)(=O)[C@H](C)[C@](O)(Cn1cncn1)c1ccc(F)cc1F [Compound 61, N-dodecyl-N-methyl-[(2R,3R)-3-(2,4-difluorophenyl)-3-hydroxy-4-(1H-1,2,4-triazol-1-yl)-2-butane]sulfonamide]
zone of inhibition at 1000 µg/mL: 18 mm

C#CCN(C)S(=O)(=O)[C@H](C)[C@](O)(Cn1cncn1)c1ccc(F)cc1F [Compound 62, N-methyl-N-(2-propinyl)-[(2R,3R)-3-(2,4-difluorophenyl)-3-hydroxy-4-(1H-1,2,4-triazol-1-yl)-2-butane]sulfonamide]
zone of inhibition at 1000 µg/mL: 45 mm

C[C@H]([C@](O)(Cn1cncn1)c1ccc(F)cc1F)S(=O)(=O)N(C)CC#CC(C)(C)C [Compound 63, N-(4,4-dimethyl-2-pentynyl)-N-methyl-[(2R,3R)-3-(2,4-difluorophenyl)-3-hydroxy-4-(1H-1,2,4-triazol-1-yl)-2-butane]sulfonamide]
zone of inhibition at 1000 µg/mL: 40 mm

C[C@H]([C@](O)(Cn1cncn1)c1ccc(F)cc1F)S(=O)(=O)N(C)Cc1ccc(C(F)(F)F)cc1 [Compound 66, N-methyl-N-(4-trifluoromethylbenzyl)-[(2R,3R)-3-(2,4-difluorophenyl)-3-hydroxy-4-(1H-1,2,4-triazol-1-yl)-2-butane]sulfonamide]
zone of inhibition at 1000 µg/mL: 42 mm

C[C@H]([C@](O)(Cn1cncn1)c1ccc(F)cc1F)S(=O)(=O)N(C)Cc1ccc(C(F)(F)F)cc1F [Compound 67, N-(2-fluoro-4-trifluoromethylbenzyl)-N-methyl-[(2R,3R)-3-(2,4-difluorophenyl)-3-hydroxy-4-(1H-1,2,4-triazol-1-yl)-2-butane]sulfonamide]
zone of inhibition at 1000 µg/mL: 42 mm

C[C@H]([C@](O)(Cn1cncn1)c1ccc(F)cc1F)S(=O)(=O)N(C)C/C=C/C#CC(C)(C)C [Compound 68, N-[(E)-6,6-dimethyl-2-hepten-4-ynyl]-N-methyl-[(2R,3R)-3-(2,4-difluorophenyl)-3-hydroxy-4-(1H-1,2,4-triazol-1-yl)-2-butane]sulfonamide]
zone of inhibition at 1000 µg/mL: 42 mm

Reference: patent US5389663A, “1-(1h-1,2,4-triazole-yl)-2-propanol compounds” (Takeda Chemical Industries, Ltd., priority 1991, dated 1995)
